Experimental data taken from US8574563B2 (Bristol-Myers Squibb Company, priority 2006, dated 2013).

Tested on: HCV 1b-377-neo replicon cells
Assay: HCV replicon assay, HCV 1b-377-neo replicon cells (1b FRET)
Assay type: cell-based, Hepatitis C virus genotype 1b
Details: Hepatitis C virus, HCV 1b-377-neo replicon cells; HCV 1b genotype; read-out: EC50 range against HCV 1b (Table 2, Range)
Experimental: An HCV Replion assay was utilized in the present disclosure, and was prepared, conducted and validated as described in commonly owned PCT/US2006/022197 and in O'Boyle et. al. Antimicrob Agents Chemother. 2005 April; 49(4):1346-53.
HCV 1b-377-neo replicon cells were used to test the currently described compound series as well as cells resistant to compound A due to a Y2065H mutation in NS5A (described in application PCT/US2006/022197). The compounds tested were determined to have more than 10-fold less inhibitory activity on cells resistant to compound A than wild-type cells indicating a related mechanism of action between the two compound series. Thus, the compounds of the present disclosure can be effective to inhibit the function of the HCV NS5A protein and are understood to be as effective in combinations as previously described in application PCT/US2006/022197 and commonly owned WO/04014852. Further, the compounds of the present disclosure can be effective against the HCV 1b genotype. It should also be understood that the compounds of the present disclosure can inhibit multiple genotypes of HCV. […] In one embodiment compounds of the present disclosure are active against the 1a, 1b, 2a, 2b, 3a, 4a, and 5a genotypes.

SMILES | EC50
O=C(N1CCC[C@H]1c1ncc(-c2ccc(-c3ccc(-c4cnc([C@@H]5CCCN5C(=O)C5(O)CC5)[nH]4)cc3)cc2)[nH]1)C1(O)CC1 [Example 24, 1,1′-(4,4′-biphenyldiylbis(1H-imidazole-5,2-diyl(2S)-2,1-pyrrolidinediylcarbonyl))dicyclopropanol] | 1 to 99 nM
O=C([C@@H](c1ccccc1)N1CCCCC1)N1CCC[C@H]1c1ncc(-c2ccc(-c3ccc(-c4cnc([C@@H]5CCCN5C(=O)[C@@H](c5ccccc5)N5CCCCC5)[nH]4)cc3)cc2)[nH]1 [Example 24-1, 1,1′-(4,4′-biphenyldiylbis(1H-imidazole-5,2-diyl(2S)-2,1-pyrrolidinediyl((1R)-2-oxo-1-phenyl-2,1-ethanediyl)))dipiperidine] | 0.001 to 0.999 nM
CC1(O)CCN([C@@H](C(=O)N2CCC[C@H]2c2ncc(-c3ccc(-c4ccc(-c5cnc([C@@H]6CCCN6C(=O)[C@@H](c6ccccc6)N6CCC(C)(O)CC6)[nH]5)cc4)cc3)[nH]2)c2ccccc2)CC1 [Example 24-2, 1,1′-(4,4′-biphenyldiylbis(1H-imidazole-5,2-diyl(2S)-2,1-pyrrolidinediyl((1R)-2-oxo-1-phenyl-2,1-ethanediyl)))bis(4-methyl-4-piperidinol)] | 0.001 to 0.999 nM
COC(=O)N[C@@H](C(=O)N1CCC[C@H]1c1ncc(-c2ccc(-c3ccc(-c4cnc([C@@H]5CCCN5C(=O)[C@H](NC(=O)OC)c5ccccc5Cl)[nH]4)cc3)cc2)[nH]1)c1ccccc1Cl [Example 24-3, dimethyl (4,4′-biphenyldiylbis(1H-imidazole-5,2-diyl(2S)-2,1-pyrrolidinediyl((1R)-1-(2-chlorophenyl)-2-oxo-2,1-ethanediyl)))biscarbamate] | 0.001 to 0.999 nM
CN(C)C(=O)N[C@@H](C(=O)N1CCC[C@H]1c1nc(-c2ccc(-c3ccc(-c4c[nH]c([C@@H]5CCCN5C(=O)[C@H](NC(=O)N(C)C)c5ccccc5)n4)cc3)cc2)c[nH]1)c1ccccc1 [Example 24-4a, N′,N′′′-(4,4′-biphenyldiylbis(1H-imidazole-4,2-diyl(2S)-2,1-pyrrolidinediyl((1R)-2-oxo-1-phenyl-2,1-ethanediyl)))bis(1,1-dimethylurea)] | 0.001 to 0.999 nM
CNC(=O)N[C@@H](C(=O)N1CCC[C@H]1c1ncc(-c2ccc(-c3ccc(-c4cnc([C@@H]5CCCN5C(=O)[C@H](NC(=O)NC)c5ccccc5)[nH]4)cc3)cc2)[nH]1)c1ccccc1 [Example 24-4b, N′,N′′′-(4,4′-biphenyldiylbis(1H-imidazole-5,2-diyl(2S)-2,1-pyrrolidinediyl((1R)-2-oxo-1-phenyl-2,1-ethanediyl)))bis(1-methylurea)] | 1 to 99 nM
CCNC(=O)N[C@@H](C(=O)N1CCC[C@H]1c1ncc(-c2ccc(-c3ccc(-c4cnc([C@@H]5CCCN5C(=O)[C@H](NC(=O)NCC)c5ccccc5)[nH]4)cc3)cc2)[nH]1)c1ccccc1 [Example 24-4c, N′,N′′′-(4,4′-biphenyldiylbis(1H-imidazole-5,2-diyl(2S)-2,1-pyrrolidinediyl((1R)-2-oxo-1-phenyl-2,1-ethanediyl)))bis(1-ethylurea)] | 0.001 to 0.999 nM
O=C(NC1CCCC1)N[C@@H](C(=O)N1CCC[C@H]1c1ncc(-c2ccc(-c3ccc(-c4cnc([C@@H]5CCCN5C(=O)[C@H](NC(=O)NC5CCCC5)c5ccccc5)[nH]4)cc3)cc2)[nH]1)c1ccccc1 [Example 24-4d, N′,N′′′-(4,4′-biphenyldiylbis(1H-imidazole-5,2-diyl(2S)-2,1-pyrrolidinediyl((1R)-2-oxo-1-phenyl-2,1-ethanediyl)))bis(1-cyclopentylurea)] | 0.001 to 0.999 nM
CN(CC(=O)N1CCC[C@H]1c1ncc(-c2ccc(-c3ccc(-c4cnc([C@@H]5CCCN5C(=O)CN(C)Cc5ccccc5)[nH]4)cc3)cc2)[nH]1)Cc1ccccc1 [Example 24-4e, 2,2′-(4,4′-biphenyldiylbis(1H-imidazole-5,2-diyl(2S)-2,1-pyrrolidinediyl))bis(N-benzyl-N-methyl-2-oxoethanamine)] | 1 to 99 nM
C[C@@H](C(=O)N1CCC[C@H]1c1ncc(-c2ccc(-c3ccc(-c4cnc([C@@H]5CCCN5C(=O)[C@H](C)N(C)Cc5ccccc5)[nH]4)cc3)cc2)[nH]1)N(C)Cc1ccccc1 [Example 24-4f, (2S,2′S)-1,1′-(4,4′-biphenyldiylbis(1H-imidazole-5,2-diyl(2S)-2,1-pyrrolidinediyl))bis(N-benzyl-N-methyl-1-oxo-2-propanamine)] | 100 to 999 nM
CC(C)C(C(=O)N1CCC[C@H]1c1ncc(-c2ccc(-c3ccc(-c4cnc([C@@H]5CCCN5C(=O)C(C(C)C)N(C)Cc5ccccc5)[nH]4)cc3)cc2)[nH]1)N(C)Cc1ccccc1 (stereo partly drawn) [Example 24-4g, 1,1′-(4,4′-biphenyldiylbis(1H-imidazole-5,2-diyl(2S)-2,1-pyrrolidinediyl))bis(N-benzyl-N,3-dimethyl-1-oxo-2-butanamine)] | 1000 to 10000 nM
O=C(C(c1ccccc1)N1CCC(O)CC1)N1CCC[C@H]1c1ncc(-c2ccc(-c3ccc(-c4cnc([C@@H]5CCCN5C(=O)C(c5ccccc5)N5CCC(O)CC5)[nH]4)cc3)cc2)[nH]1 (stereo partly drawn) [Example 24-4h, 1,1′-(4,4′-biphenyldiylbis(1H-imidazole-5,2-diyl(2S)-2,1-pyrrolidinediyl(2-oxo-1-phenyl-2,1-ethanediyl)))di(4-piperidinol)] | 0.001 to 0.999 nM
CN(C)[C@@H](C(=O)N1C[C@@H](F)C[C@H]1c1ncc(-c2ccc(-c3ccc(-c4cnc([C@@H]5C[C@H](F)CN5C(=O)[C@@H](c5ccccc5)N(C)C)[nH]4)cc3)cc2)[nH]1)c1ccccc1 [Example 24-5] | 0.001 to 0.999 nM
CCN(CC)[C@@H](C(=O)N1C[C@@H](F)C[C@H]1c1ncc(-c2ccc(-c3ccc(-c4cnc([C@@H]5C[C@H](F)CN5C(=O)[C@@H](c5ccccc5)N(CC)CC)[nH]4)cc3)cc2)[nH]1)c1ccccc1 [Example 24-6] | 0.001 to 0.999 nM
O=C([C@@H](c1ccccc1)N1CCCCC1)N1C[C@@H](F)C[C@H]1c1ncc(-c2ccc(-c3ccc(-c4cnc([C@@H]5C[C@H](F)CN5C(=O)[C@@H](c5ccccc5)N5CCCCC5)[nH]4)cc3)cc2)[nH]1 [Example 24-7] | 0.001 to 0.999 nM
O=C([C@@H](c1ccccc1)N1CCCCC1)N1CC(F)(F)C[C@H]1c1nc(-c2ccc(-c3ccc(-c4cnc([C@@H]5CC(F)(F)CN5C(=O)[C@@H](c5ccccc5)N5CCCCC5)[nH]4)cc3)cc2)c[nH]1 [Example 24-8, 1,1′-(4,4′-biphenyldiylbis(1H-imidazol-4,2-diyl((2S)-4,4-difluoro-2,1-pyrrolidinediyl)((1R)-2-oxo-1-phenyl-2,1-ethanediyl)))dipiperidine] | 0.001 to 0.999 nM
COC(=O)N[C@@H](C(=O)N1CC(F)(F)C[C@H]1c1nc(-c2ccc(-c3ccc(-c4cnc([C@@H]5CC(F)(F)CN5C(=O)[C@H](NC(=O)OC)c5ccccc5)[nH]4)cc3)cc2)c[nH]1)c1ccccc1 [Example 24-9, dimethyl (4,4′-biphenyldiylbis(1H-imidazole-4,2-diyl((2S)-4,4-difluoro-2,1-pyrrolidinediyl)((1R)-2-oxo-1-phenyl-2,1-ethanediyl)))biscarbamate] | 0.001 to 0.999 nM
O=C([C@@H](c1ccccc1)N1CCCCC1)N1CC(F)(F)C[C@H]1c1nc(-c2ccc(-c3ccc(-c4cnc([C@@H]5CCCN5C(=O)[C@@H](c5ccccc5)N5CCCCC5)[nH]4)cc3)cc2)c[nH]1 [Example 24-10, 1-((R)-2-((2S)-2-(4-(4′-(2-((2S)-4,4-difluoro-1-((2R)-2-phenyl-2-(1-piperidinyl)acetyl)-2-pyrrolidinyl)-1H-imidazol-4-yl)-4-biphenylyl)-1H-imidazol-2-yl)-1-pyrrolidinyl)-2-oxo-1-phenylethyl)piperidine] | 0.001 to 0.999 nM
COC(=O)N[C@@H](C(=O)N1C[C@H](O)C[C@H]1c1nc(-c2ccc(-c3ccc(-c4c[nH]c([C@@H]5C[C@@H](O)CN5C(=O)[C@H](NC(=O)OC)c5ccccc5)n4)cc3)cc2)c[nH]1)c1ccccc1 [Example 24-11, dimethyl (4,4′-biphenyldiylbis(1H-imidazole-5,2-diyl((2S,4R)-4-hydroxy-2,1-pyrrolidinediyl)((1R)-2-oxo-1-phenyl-2,1-ethanediyl)))biscarbamate] | 1 to 99 nM
O=C([C@H](O)c1ccccc1)N1C[C@H](O)C[C@H]1c1ncc(-c2ccc(-c3ccc(-c4cnc([C@@H]5C[C@@H](O)CN5C(=O)[C@H](O)c5ccccc5)[nH]4)cc3)cc2)[nH]1 [Example 24-12, (3R,5S,3′R,5′S)-5,5′-(4,4′-biphenyldiylbis(1H-imidazole-5,2-diyl))bis(1-((2R)-2-hydroxy-2-phenylacetyl)-3-pyrrolidinol)] | 1 to 99 nM
CNC(=O)N[C@@H](C(=O)N1C[C@H](O)C[C@H]1c1ncc(-c2ccc(-c3ccc(-c4cnc([C@@H]5C[C@@H](O)CN5C(=O)[C@H](NC(=O)NC)c5ccccc5)[nH]4)cc3)cc2)[nH]1)c1ccccc1 [Example 24-13, N,N″-(4,4′-biphenyldiylbis(1H-imidazole-5,2-diyl((2S,4R)-4-hydroxy-2,1-pyrrolidinediyl)((1R)-2-oxo-1-phenyl-2,1-ethanediyl)))bis(3-methylurea)] | 100 to 999 nM
CCNC(=O)N[C@@H](C(=O)N1C[C@H](O)C[C@H]1c1ncc(-c2ccc(-c3ccc(-c4cnc([C@@H]5C[C@@H](O)CN5C(=O)[C@H](NC(=O)NCC)c5ccccc5)[nH]4)cc3)cc2)[nH]1)c1ccccc1 [Example 24-14, N′,N′′′-(4,4′-biphenyldiylbis(1H-imidazole-5,2-diyl((2S,4R)-4-hydroxy-2,1-pyrrolidinediyl)((1R)-2-oxo-1-phenyl-2,1-ethanediyl)))bis(1-ethylurea)] | 1 to 99 nM
